US20220313733A1, “METHOD FOR PRODUCING RENAL INTERSTITIAL CELL” (Kyoto University, priority 2019, published 2022)

What was measured:
Format in all cases: cell-based, human
hNCCs = test: Hypoxic response of posteriorly shifted NCCs (hNCCs): EPO secreted into the medium; conditions: hNCCs on Day 18, 100 μM, 1 day after addition
Procedure: EPO-producing cells are known to perform the production and secretion of EPO in response to HIF signals in a hypoxic environment. The hypoxic response of the hNCCs on Day 18 prepared in Example 1-3 was confirmed using two types of compounds that activated HIF signals (FG-2216: Selleck Chemicals #18382 and FG-4592: Selleck Chemicals #S1007, 100 μM each). Results of quantifying the amount of EPO secreted into the medium on 1 day after addition of FG-2216 or FG-4592 are shown in FIG. 3. The secretion of EPO into the medium was increased in response to hypoxic stimulation.

[1] = tested on: kidney organoid (Mini-kidney); test: Renal stromal cell marker mRNA expression in Mini-kidney under hypoxic stimulation; conditions: Mini-kidney IM+RSP (D25), 100 μM
Description: The mRNA expression levels of renal stromal cell markers (desmin, vimentin, PDGFRβ and CD73) were quantified by the sequencing analysis of the libraries for transcriptomes prepared in Example 4-4. The expression of all the renal stromal cell markers was confirmed in the Mini-kidney (IM+RSP (D25)). As a result of confirming the hypoxic response of the Mini-kidney (IM+RSP (D25)) in the same manner as in Example 1-4, the expression levels of desmin and CD73 were decreased by hypoxic stimulation (100 μM FG-4592) (IM+RSP (D25)+FG4592).

RSCs [2] = test: Hypoxia-responsive ability of RSCs to produce EPO (mRNA, immunostaining); conditions: 100 μM
Procedure: The RSPs obtained in Example 2 were inoculated at 2×10^3 cells/well to a 6-well plate coated with fibronectin, and cultured for 15 days in STEMdiff APEL2 medium (STEMCELL Technologies Inc., ST-05275) to obtain RSCs (Days 55 to 70). The hypoxia-responsive ability to produce EPO was confirmed as to the obtained RSCs. EPO-producing cells are known to perform the production and secretion of EPO in response to HIF signals in a hypoxic environment. The RSCs were treated with a compound that activated HIF signals (FG-4592, Selleck Chemicals, #S1007, 100 μM).

[3] = tested on: kidney organoid (Mini-kidney); test: EPO mRNA expression in kidney organoid (Mini-kidney) under hypoxic stimulation; conditions: Mini-kidney IM+RSP (D25), 100 μM
Procedure: RNA was extracted from the kidney organoid on Day 25 from the start of coculture (Mini-kidney, IM+RSP (D25)) obtained in Example 4-3 and a kidney organoid containing no RSP (KiO (D25)), and libraries for transcriptome analysis were prepared using Ion AmpliSeq™ Transcriptome Human Gene Expression Kit (Thermo Fisher Scientific, Inc.: #A26326). The prepared libraries were subjected to sequencing analysis (Ion S5 XL sequencer, Thermo Fisher Scientific, Inc.) using Ion 54™ Chip Kit (Thermo Fisher Scientific, Inc., #A27765) to quantify the expression level of EPO mRNA. The significant expression of EPO mRNA was not seen in any of an iPS cell line, IM, and the kidney organoid containing no RSP (KiO (D25)). By contrast, the significant expression of EPO mRNA was confirmed in the Mini-kidney (IM+RSP (D25)). As a result of confirming the hypoxic response of the Mini-kidney in the same manner as in Example 1-4, the EPO expression level was increased by hypoxic stimulation (100 μM FG-4592) (IM+RSP (D25) +FG4592).

RSCs [4] = test: Screening system for a compound that improves a sustained fibrotic state (area of tdTomato-positive cells); conditions: 3, 10 or 30 μM added on D15, cultured to D24, after 10 ng/ml TGFβ1 D4 to D13
Procedure: In FIG. 15, RSCs on day 4 of culture (D4) were treated with TGFβ1 (10 ng/ml) for 9 days (D13) and then further cultured in a TGFβ1-free medium (D15) for 2 days. SB431542 (3, 10 or 30 μM) was added to the medium of the cells on D15, and the cells were further cultured for 9 days (D24). […] “Cont” depicts a negative control (without SB addition).
RSPs were inoculated at 3000 cells/well to a 384-well plate, and the induction of RSCs was started in STEMdiff APEL2 medium (STEMCELL Technologies Inc., ST-05275). On day 4 of culture (D4), fibrosis was induced by the addition of 10 ng/ml TGFβ1. During the culture period, the culture solution containing TGFβ1 was replaced with a fresh one every 3 days. On day 13 of culture (D13), TGFβ1 was removed from the medium, and culture was further continued for 2 days (D15). The TGF receptor inhibitor SB431542 (SB) was added as a test substance to the medium of the cells on D15, and the cells were further cultured for 9 days (D24). Then, the area of tdTomato-positive cells was determined.

RSCs [5] = test: Evaluation of TGFβ1 response of RSCs (fibrosis, area of tdTomato-positive cells, αSMA)
Procedure: In vivo renal stromal cells are known to cause differentiation into αSMA-positive myofibroblasts and hypertrophy (so-called fibrosis) in response to TGFβ1 stimulation. RSCs were obtained by the methods described in Examples 1, 2 and 3-1 from the EPO-emGFP/GAPDH-tdTomato (GAPDH-tdT) dual knock-in human iPS cell line obtained in Example 4-2 mentioned later. In the method described in Example 1, the RA concentration was set to 3 μM. RSCs on day 4 of culture (D4) were treated with TGFβ1 (0.01 to 10 ng/ml) for 9 days (D13), and the degree of fibrosis was evaluated by determining the ratio of tdTomato-positive cells using image analysis software Image J (NIH). Specifically, a fluorescently taken image was converted to 8 bits for binarization, and the whole area was divided into “area of cells” and “other areas (areas containing no cell)”. The proportion was calculated according to the expression “Area of cells”/“Whole area”.

RSCs [6] = test: Fibrotic state of RSCs after removal of TGFβ1 from the medium
Procedure: In FIG. 13, RSCs on day 4 of culture (D4) were treated with TGFβ1 (1 ng/ml) for 9 days (D13 TGF) and then further cultured in a TGFβ1-containing medium (D25 TGF+) or a TGFβ1-free medium (D25 TGF−) for 12 days. […] “D25 Cont” depicts a negative control (without TGFβ1 treatment).
In FIG. 14, RSCs on day 4 of culture (D4) were treated with TGFβ1 (10 ng/ml) for 9 days (D13 TGF) and then further cultured in a TGFβ1-containing medium (D25 TGF+) or a TGFβ1-free medium (D25 TGF−) for 12 days. […] “D25 Cont” depicts a negative control (without TGFβ1 treatment).
By exploiting this property of fibrosis of RSCs, a screening system for a compound that improved a sustained fibrotic state was constructed.

fibronectin (FN1) = test: Biomarker search: LC/MS analysis of culture supernatant of RSCs with induced fibrosis; conditions: 10 ng/ml TGFβ1 for 9 days
Procedure: RSPs were inoculated at 2×10^6 cells/dish to a 10 cm dish, and the induction of RSCs was started in STEMdiff APEL2 medium (STEMCELL Technologies Inc., ST-05275). On day 7 of culture (D7), 10 ng/ml TGFβ1 was added thereto, and the cells were further cultured for 9 days to induce fibrosis.
The culture supernatant was recovered. After removal of albumin, IgG and IgA, a peptide fragment was obtained by acetone precipitation and trypsin digestion. The amino acid sequence of the peptide fragment was determined by LC/MS analysis.

RSPs = test: Influence of bFGF, FGF9 and PDGF-BB on differentiation of RSPs into RSCs (number of cells, EPO ELISA)
Procedure: The RSPs obtained in Example 2 were inoculated at 2×10^3 cells/well to a 6-well plate coated with fibronectin, and cultured for 15 days in STEMdiff APEL2 medium (STEMCELL Technologies Inc., ST-05275) to obtain RSCs (Days 55 to 70).
The number of cells and the amount of EPO secreted into the medium which were obtained by adding 40 ng/ml bFGF, 200 ng/ml FGF9 (FUJIFILM Wako Pure Chemical Corp., #AF-100-23), and 10 ng/ml PDGF-BB (PeproTech, Inc., #100-14B) each alone or in combination to a medium were measured under the induction conditions of Example 3-1. EPO in the medium was measured by ELISA.

O=C(O)CNC(=O)c1nc(Cl)c2ccccc2c1O [FG-2216]
secretion of EPO into the medium (hNCCs): increased

Cc1nc(C(=O)NCC(=O)O)c(O)c2ccc(Oc3ccccc3)cc12 [FG-4592]
expression level of CD73 [1]: decreased
expression level of desmin [1]: decreased
expression of EPO in response to hypoxic stimulation (RSCs [2]): found at the mRNA level and the protein level
secretion of EPO into the medium (hNCCs): increased
EPO expression level [3]: increased

NC(=O)c1ccc(-c2nc(-c3ccc4c(c3)OCO4)c(-c3ccccn3)[nH]2)cc1 [SB431542, 4-[4-(1,3-benzodioxol-5-yl)-5-(2-pyridinyl)-1H-imidazol-2-yl]-benzamide]
fibrosis (area of tdTomato-positive cells) (RSCs [4]): marked suppression of fibrosis
cellular hypertrophy caused by TGFβ1 (RSCs [5]; cotreatment with TGF receptor inhibitor): suppressed

TGFβ1: isoform of transforming growth factor β, fibrosis-inducing substance
fibrotic state after removing TGFβ1 from the medium (RSCs [6]; fibrosis induced by 1 ng/ml TGFβ1): restored to non-fibrotic RSCs
fibrotic state after removal of TGFβ1 from the medium (RSCs [6]; fibrosis induced by 10 ng/ml TGFβ1): maintained the fibrotic state
FN1 detected in culture supernatant of treated cells as compared with untreated cells (fibronectin (FN1)): about 10 times
cellular hypertrophy, concentration dependence (RSCs [5]; TGFβ1 0.01 to 10 ng/ml for 9 days): caused in a TGFβ1 concentration-dependent manner
differentiation into αSMA-positive myofibroblasts and cellular hypertrophy (RSCs [5]; TGFβ1 0.01 to 10 ng/ml for 9 days (D4 to D13)): found

bFGF: basic fibroblast growth factor (FUJIFILM Wako Pure Chemical Corp.)
proliferation of the cells (RSPs; 40 ng/ml bFGF added to STEMdiff APEL2 medium): promoted

B1: PDGF-BB: platelet derived growth factor B chain homodimer (PeproTech, Inc., #100-14B) (protein, UniProt P01127 82-190, looked up)
Platelet-derived growth …: SLGSLTIAEPAMIAECKTRTEVFEISRRLIDRTNANFLVWPPCVEVQRCSGCCNNRNVQCRPTQVQLRPVQVRKIEIVRKKPIFKKATVTLEDHLACKCETVAAARPVT
amount of EPO secreted (RSPs; 10 ng/ml PDGF-BB added to STEMdiff APEL2 medium): increased
